{"source": "patent US20170014375A1", "about": "“PHARMACEUTICAL COMPOSITION COMPRISING EFFECTIVE DOSE OF POMIFERIN FOR TREATING CANCERS” (Macau University of Science and Technology, priority 2015, published 2017)", "key": {"[1]": {"test_system": "caspase WT, 3KO, 7KO, 3/7 DKO, 8KO, Bax-Bak WT and Bax-Bak DKO MEFs", "test": "Endogenous autophagic LC3 puncta in apoptosis-resistant MEFs", "type": "cell-based, mouse", "conditions": "wild-type and apoptosis-resistant MEFs; FIG. 7", "description": "Endogenous LC3 puncta formation is quantified as previously described^2. In brief, caspase wild-type (caspase WT), caspase-3 deficient (caspase 3KO), caspase-7 deficient (caspase 7KO), caspase-3/-7 deficient (caspase 3/7 DKO), caspase-8 deficient (caspase 8KO), Bax-Bak wild-type (Bak-Bak WT) and Bax-Bak double knock out (Bak-Bak DKO) MEFs are grown on coverslips in a 6-well plate are treated with […] of pomiferin. Both wild-type and deficient MEFs are then fixed in 4% paraformaldehyde for 20 minutes at room temperature and then rinsed with PBS. After washing with PBS, the cells are then incubated with anti-LC3 (1:200) in TBST (100 mM Tris HCl, pH 7.5, 150 mM NaCl, 0.05% Tween 20 and 5% BSA) overnight at 4. After washing with PBS, the cells are incubated with anti-mouse secondary antibody (TRITC) 1:200 in TBST containing 5% BSA at 37 for 1 hrs in the dark. The coverslips are then mounted with FluorSave™ mounting media (Calbiochem, San Diego, Calif., USA) for fluorescence imaging and localization of LC3 autophagosomes are captured under the API Delta Vision Live-cell Imaging System (Applied Precision Inc., GE Healthcare Company, Washington, USA)."}, "[2]": {"test_system": "caspase-8 deficient (caspase 8KO) mouse embryonic fibroblasts", "test": "MTT cytotoxicity assay, caspase 8KO MEFs", "type": "cell-based", "conditions": "Fibroblast, 72 h, 3 days, read-out: Means of IC50", "description": "(§1) The test compound of pomiferin is dissolved in DMSO at a final concentration of 100 mmol/L and stored at −20° C. Cytotoxicity is assessed using the 3-(4,5-dimethylthiazol-2-yl)-2,5-diphenyltetrazolium bromide assay as previously described^29. 2500 of caspase wild-type (caspase WT), caspase-3 deficient (caspase 3KO), caspase-7 deficient (caspase 7KO), caspase-3/-7 deficient (caspase 3/7 DKO), caspase-8 deficient (caspase 8KO), Bax-Bak wild-type (Bak-Bak WT) and Bax-Bak double knock out (Bak-Bak DKO) mouse embryonic fibroblasts (MEFs) are seeded on 96-well plates per well. After overnight pre-incubation, the cells are exposed to different concentrations of pomiferin (namely 100, 50, 25, 12.5, 6.25, 3.125, 1.5625, 0.78, 0.39, 0.195, 0.079, 0.039 μmol/L) for 3 days. Subsequently, 10 μL of MTT reagents is added to each well and incubated at 37° C. for 4 hours, followed by the addition of 100 μL solubilization buffer (10% SDS in 0.01 mol/L HCl) and overnight incubation. Absorbance at 585 nm is determined from each well on the following day. The percentage of cell viability is calculated using the following formula: Cell viability (%)=Cells numbertreated/Cells numberDMSO control×100. Data is obtained from three independent experiments."}, "[3]": {"test_system": "MCF-7 (human breast cancer) cells", "test": "MTT cytotoxicity assay, MCF-7", "type": "cell-based", "conditions": "MCF7, 72 h, MCF-7 (Breast), 3 days, read-out: Means of IC50", "description": "Pomiferin is dissolved in DMSO at a final concentration of 100 mmol/L and stored at −20° C. Cytotoxicity is assessed using the 3-(4,5-dimethylthiazol-2-yl)-2,5-diphenyltetrazolium bromide assay. 4000-8000 HeLa (human cervical cancer), MCF-7 (human breast cancer), HepG2 and Hep3B (human liver cancer), H1299 and A549 (human lung cancer), LNCap (human prostate cancer) and LLC-1 (mouse Lewis lung carcinoma) cells are seeded on 96-well plates per well. After overnight pre-incubation, the cells are exposed to different concentrations of pomiferin ([…]) for 3 days. Subsequently, 10 μL of MTT reagents is added to each well and incubated at 37° C. for 4 hours followed by the addition of 100 μL solubilization buffer (10% SDS in 0.01 mol/L HCl) and overnight incubation. Absorbance at 585 nm is determined from each well the next day. The percentage of cell viability is calculated using the following formula: Cell viability (%)=Cells number treated/Cells number DMSO control×100. Data are obtained from three independent experiments."}, "[4]": {"test_system": "caspase-3 deficient (caspase 3KO) mouse embryonic fibroblasts", "test": "MTT cytotoxicity assay, caspase 3KO MEFs", "type": "cell-based", "conditions": "Fibroblast, 72 h, 3 days, read-out: Means of IC50", "description": "as §1"}, "[5]": {"test_system": "Hep3B, HepG2, H1299, MCF-7, A549 cancer cells and normal human hepatocyte (LO2)", "test": "Endogenous LC3 puncta immunofluorescence in cancer and normal cells", "type": "cell-based", "conditions": "10 μM, FIG. 2", "description": "The detection of endogenous LC3 puncta formation is conducted using immunofluorescence staining method as described below. In brief, pomiferin-treated cancer cells (Hep3B, HepG2, H1299, MCF-7 and A549) or normal human hepatocyte (LO2) on cover slips are fixed with 4% paraformaldehyde (Sigma) for 20 min at room temperature and then rinsed with PBS. Immerse coverslips in methanol at room temperature for 2 min. After ishing with PBS, the cells are then incubated with anti-LC3 (1:200) in TBST (100 mM Tris HCl, pH 7.5, 150 mM NaCl, 0.05% Tween 20 and 5% BSA) overnight at 4. […] The coverslips are then mounted with FluorSave™ mounting media (Calbiochem, San Diego, Calif., USA) for fluorescence imaging and localization of LC3 autophagosomes are captured under the API Delta Vision Live-cell Imaging System (Applied Precision Inc., GE Healthcare Company, Washington, USA). To quantify autophagy, guidelines are followed to monitor autophagy^20, the percentage of cells with punctuate LC3 immunofluorescence staining is calculated by counting the number of the cells showing the punctuate pattern of LC3 fluorescence (>10 dots/cell) in immunofluorescence positive cells over the total number of cells in the same field. A minimum of 1000 cells from randomly selected fields are scored."}}, "data": [{"smiles": "CC(C)=CCc1c2c(c3occ(-c4ccc(O)c(O)c4)c(=O)c3c1O)C=CC(C)(C)O2", "note": "[pomiferin]", "values": [{"measurement": "autophagy induction (endogenous LC3 puncta)", "setting": "[1]", "result": "able to induce autophagy in all these wild-type and apoptosis-resistant cells"}, {"measurement": "IC50", "setting": "[2]", "result": 4.98, "unit": "µM"}, {"measurement": "IC50", "setting": "[3]", "result": 19, "unit": "µM"}, {"measurement": "IC50", "setting": "[4]", "result": 2.13, "unit": "µM"}, {"measurement": "TRITC-LC3 puncta formation", "setting": "[5]", "result": "induces TRITC-LC3 puncta formation in all tested cancer and normal cells"}]}]}
